From patent US20040010018A1, “Treatment of neuropathic pain” (priority 2002, published 2004)
Entries after “also recorded” stand apart in the source; their conditions may differ. Counter-ions that a name gives are not always drawn.

Tests used:
[1] = observed side effects / behaviors after injection in neuropathic rats; format: in vivo, rat
[2] = tested on: neuropathic pain (mechanical allodynia); experiment: mechanical allodynia (von Frey) in the rat spinal nerve ligation model of neuropathic pain; format: in vivo; conditions: for effect of antagonist pretreatment on A-85380 induced anti-allodynia: A-85380 0.75 μmol/kg i.p.
Source text: Under halothane anesthesia, the L5 and L6 spinal nerves were tightly ligated in the manner described previously by Chung et al. (Kim S. H., Chung J. M., An experimental model for peripheral neuropathy produced by segmental spinal nerve ligation in the rat. Pain 1992; 50:355-363.). Briefly, an incision was made on the dorsal portion of the hip, and the muscle was blunt dissected to reveal the spinal processes. The L6 transverse process was removed, and the left L5 and L6 spinal nerves were tightly ligated with 5.0 braided silk suture. The wound was cleaned, the membrane sewn with 4.0 dissolvable Vicryl suture and the skin closed with wound clips.
Implantation of the DRG catheters was performed immediately following nerve ligation, with animals maintained under halothane for the entire procedure (35-40 minutes). Catheters were constructed of PE 20 with small pieces of tygon tubing cemented along the catheter to allow for suture anchoring points during surgery. The left L5 DRG was exposed by removing the posterior articular process of the L5 vertebra. Gelfoam was inserted into the cavity to prevent the catheter from damaging the ganglion. The catheter was sutured to the muscle and fascia, then run subcutaneously to exteriorize between the shoulder blades. Saline was infused into the catheter, and it was heat sealed.
The implantation of i.c.v. cannulae were conducted under sodium pentobarbital (50 mg/kg, i.p. Nembutal) anesthesia with nerve ligation occurring just after the implantation; animals were maintained under anesthesia for the entire procedure (40-45 minutes). Animals were implanted with a 22 gauge guide cannulae (Plastics One, Roanoke Va.) cut to 6 mm. The stereotaxic coordinates from bregma were 1.0 mm posterior, 1.6 mm lateral, and 4.5 ventral (Paxinos G. and Watson C., The rat brain in stereotaxic coordinates. New York: Academic Press, 1997). Three skull screws were attached for stability, and the implant was covered with cranioplastic acrylic.
For i.c.v. (intracerebroventricular) infusion, chlorisondamine (10 μg) was dissolved in 5 μl phosphate buffered saline and infused by syringe pump at a rate of 5 μl/min. The infusion was performed 24 hours prior to testing in order to reduce stress to the animals immediately prior to behavioral testing.
For all other routes of administration including intraperotineal (i.p.), intradermal (i.d.) or onto the DRG, chlorisondamine was dissolved in saline. The final volumes for i.p. injections were 1 ml/kg, for i.d. were 50 μl and for DRG injections were 10 μl. All injections were made by hand held syringe.
For the assessment of neuropathic pain, mechanical allodynia in the affected paw of animals who had undergone spinal nerve ligation was evaluated using von Frey filaments. As described previously (Chaplan et al, Quantitative assessment of tactile allodynia in the rat paw. J Neurosci Meth, 1994; 53:55-62), two weeks following surgery, rats were acclimated to the testing box which was constructed of plexiglass with a wire mesh floor to allow access to the planter surface of the hind paws. Using the Dixons Up-Down method, a baseline level of allodynia was taken with allodynia defined as a withdrawal threshold <4 g. Test compounds were then administered and subsequent withdrawal thresholds determined.
For spinal nerve ligation experiments, the timing of antagonist administration depended upon the route of administration. With i.c.v. administration, chlorisondamine or its vehicle was given 24 hours prior to further manipulation. On the day of the experiment, a baseline allodynia score was determined and then A-85380 or its vehicle control was given and measures taken at 15, 30 and 60 minutes post agonist injection. Dose response curves for i.p., i.d. and DRG administration were also determined using this time line. […]

[3] = given systemically (i.p.); cited from earlier work
persistent pain = experiment: formalin model of persistent pain (phase two); format: in vivo, rat; conditions: A-85380 0.75 μmol/kg i.p.
Description: The formalin test was used as an assessment of persistent pain. The method, described previously (Bannon et al. 1998) is briefly as follows. Following acclimation to the test environment, 50 μl of a 5% formalin solution was injected subcutaneously into the dorsal surface of one of the rear paws. Only phase two, defined as the 20 minute period from 30 to 50 minutes post formalin injection, was scored for nocifensive behaviors including flinching, licking, and biting.
For formalin experiments, chlorisondamine or its vehicle was infused either 24 h or 40-50 minutes prior to further manipulation. A-85380 was then injected and, 5 minutes later, formalin was injected into the paw. Measures were taken between 30 and 50 minutes post formalin injection.
The effect of centrally and systemically administered chlorisondamine in a model of persistent pain was examined. Using phase two of the formalin model of persistent pain, chlorisondamine (10 μg) was administered i.c.v. 24 hours prior to the systemic administration of A-85380.

acute thermal pain [4] = experiment: rat paw withdrawal model of acute thermal pain using neuropathic rats; format: in vivo; conditions: chlorisondamine 0.4 μmol/kg i.p., A-85380 0.75 μmol/kg i.p.
Source text: (§1) For the assessment of acute pain, a paw thermal stimulator was used to evaluate nociceptive responses to an acute thermal stimulus (Anesthesiology Research Laboratory, Department of Anesthesiology, University of California at San Diego, La Jolla, Calif.). The device and behavioral procedure have been described previously (Hargreaves et al., A new and sensitive method for measuring thermal nociception in cutaneous hyperalgesia, Pain 1988, 32:77-88; Dirig et al., Characterization of variables defining hind paw withdrawal latency evoked by radiant thermal stimuli, J. Neurosci. Meth. 1997; 76:183-191). Briefly, rats were placed in Plexiglas boxes on a glass surface maintained at 30° C. and allowed to acclimate for 30 minutes. The measured nociceptive response was the latency to withdraw the hind paw when heated by light from a focused projector lamp (current set at 4.8 A). The final score was the mean of the latencies for the left and right paw. To avoid tissue damage, the maximal response latency prior to automatic shutoff of the lamp was 20.5 sec.
(§2) For acute thermal pain experiments, a baseline withdrawal threshold was determined, and then chlorisondamine or its vehicle was administered. […]
To address this concern, neuropathic rats were assessed in the acute thermal model of paw withdrawal. […]

acute thermal pain [5] = experiment: rat paw withdrawal model of acute thermal pain, normal rats; format: in vivo; conditions: chlorisondamine 0.4 μmol/kg i.p. 30 min prior, A-85380 0.75 μmol/kg i.p.
Source text: as §1, with “To avoid tissue damage, the maximal response latency prior to automatic shutoff of the lamp was 20.5 sec.” left out
as §2
The effect of systemically administered chlorisondamine in a model of acute thermal pain was examined. […] The effect of systemically administered chlorisondamine (0.4 μmol/kg, i.p.) on A-85380 (0.75 μmol/kg, i.p.) was assessed.

[6] = chlorisondamine 10 μg i.c.v. 24 hours prior

## Cl.Cl.c1cncc(OC[C@@H]2CCN2)c1 [A-85380, 3-(2(S)-azetidinylmethoxy)pyridine dihydrochloride]
[1]; 0.5-1.0 μmol/kg, i.p.
  behaviors induced immediately following injection: prostration and ataxia
  time point by which prostration and ataxia abated: ≤ 15 min
[1]; chlorisondamine 0.4 μmol/kg i.p. pretreatment, A-85380 at increased dose
  side effects with peripheral NNRs blocked: significant increase in side effects
[1]; chlorisondamine 10 μg i.c.v. pretreatment, A-85380 at increased dose
  side effects with central NNRs blocked: almost no side effects
[1]; given systemically (i.p.), no antagonist
  side effects accompanying the reduction in allodynia: prostration, ataxia, bracing and dyspnea
[2]; 10 μg infused onto the L5 DRG
  anti-allodynia (paw withdrawal threshold): significant anti-allodynia
  duration of anti-allodynia: 15 min
[2]; 20 μg infused onto the L5 DRG
  anti-allodynia (paw withdrawal threshold): significant anti-allodynia
  duration of anti-allodynia: 30 min
[2]; 10, 20 and 50 μg/rat i.d. into plantar surface of contralateral (unaffected) paw, dihydrochloride
  anti-allodynia in the affected paw (paw withdrawal threshold): all three doses of A-85380 induced a significant anti-allodynia; also recorded: equivalent or greater anti-allodynia
[2]; 10, 20 and 50 μg/rat i.d. into plantar surface of ipsalateral (affected) paw, dihydrochloride
  anti-allodynia in the affected paw (paw withdrawal threshold): only the 50 μg dose of A-85380 had an anti-allodynic effect; also recorded: small but significant anti-allodynia
[2]; central NNRs blocked with chlorisondamine 10 μg i.c.v.
  dose required for significant reduction in allodynia: 3 µmol/kg
[2]; chlorisondamine 0.4 μmol/kg i.p. pretreatment, systemic A-85380
  reduction in allodynia with peripheral NNRs blocked: significant reduction in allodynia
[2]; chlorisondamine 10 μg i.c.v. pretreatment, systemic A-85380
  reduction in allodynia with central NNRs blocked: significant reduction in allodynia
[2]; doses converted to equivalent systemic dose, 15 minute time point
  potency to increase paw withdrawal threshold, i.p. compared with i.d. administration: similar
[2]; doses converted to equivalent systemic dose, 15 minute time point, dihydrochloride
  potency to increase paw withdrawal threshold, DRG administration compared with i.p. and i.d.: decidedly more potent; also recorded: most potent
[2]; given without an antagonist
  dose required for significant reduction in allodynia: 0.75 µmol/kg
[2]; infused directly onto the L5 DRG, different doses
  anti-allodynia (paw withdrawal threshold): dose-dependent anti-allodynic effect
[2]; peripheral NNRs blocked with chlorisondamine 0.4 μmol/kg i.p.
  dose required for significant reduction in allodynia: 1.5 µmol/kg
[2]; systemically administered (i.p.), no antagonist, dihydrochloride
  anti-allodynia (paw withdrawal threshold): significant, dose-dependent decrease; also recorded: dose dependent anti-allodynia; also recorded: dose-dependent anti-allodynia
[3]
  crossing of the blood brain barrier: readily crosses the blood brain barrier

## O=C(NO)c1cncc(N2C[C@H]3CNC[C@H]32)c1 [A-420503, (IR, 5S) 5-(3,6-diazabicyclo [3.2.0]hept-6-yl)-N-hydroxy-nicotinamide]
[1]; 62 μmol/kg, i.p.
  side effects: without any notable side effects
[2]; 62 μmol/kg, i.p.
  anti-allodynia: significant anti-allodynia
[2]; DRG administration
  effects at the DRG after pretreatment with an NMR antagonist: blocked
[2]; at the DRG, equivalent to 4.77 μmol/kg i.p.
  anti-allodynia: significant anti-allodynia

## C[N+](C)(C)CCCCCC[N+](C)(C)C [Hexamethonium, hexamethonium]
[2]; hexamethonium 19 μmol/kg i.p. 30 minutes prior
  effect of antagonist pretreatment on A-85380 induced anti-allodynia: blocked

## CNC1(C)C2CCC(C2)C1(C)C (stereo not drawn) [Mecamylamine, mecamylamine hydrochloride]
[1]; mecamylamine 1 μmol/kg i.p. 30 minutes prior to A-85380
  effect of antagonist pretreatment on prostration and ataxia following A-85380 injection: blocked
[2]; mecamylamine 1 μmol/kg i.p. 30 minutes prior, hydrochloride
  effect of antagonist pretreatment on A-85380 induced anti-allodynia: completely blocked
[2]; mecamylamine 1 μmol/kg i.p. 30 minutes prior, listed as mecamylamine, hydrochloride
  effect of antagonist pretreatment on A-85380 induced anti-allodynia: full blockade

## C[N+](C)(C)CC[N+]1(C)Cc2c(Cl)c(Cl)c(Cl)c(Cl)c2C1 [chlorisondamine, chlorisondamine diiodide]
[2]; chlorisondamine 0.4 μmol/kg i.p. 30 minutes prior
  effect of antagonist pretreatment on A-85380 induced anti-allodynia: completely blocked
[2]; chlorisondamine 0.4 μmol/kg i.p. 30 minutes prior, A-85380 20 μg onto DRG
  effect of antagonist pretreatment on anti-allodynia induced by A-85380 infused onto the DRG: completely blocked
[2]; [6]
  effect of antagonist pretreatment on A-85380 induced anti-allodynia: completely blocked
Persistent pain; chlorisondamine 0.4 μmol/kg i.p. 40-50 minutes prior to formalin
  effect of antagonist pretreatment on A-85380 induced analgesia (flinches, phase two): no significant attenuation; also recorded: no significant effect
Persistent pain; [6]
  effect of antagonist pretreatment on A-85380 induced analgesia (flinches, phase two): completely blocked
Acute thermal pain [4]
  effect of antagonist pretreatment on A-85380 induced antinociception (paw withdrawal latency): did not alter; also recorded: does not alter
Acute thermal pain [5]
  effect of antagonist pretreatment on A-85380 induced antinociception (paw withdrawal latency): no effect; also recorded: completely ineffective
